Columns and labels:
Assay in all cases: relative viability (nuclei count vs DMSO), 5 days (fraction); higher = more cells survive
[1] = compound: CC[C@@H]1C(=O)N(C)c2cnc(Nc3ccc(C(=O)NC4CCN(C)CC4)cc3OC)nc2N1C1CCCC1 [BI-2536] + CCNC(=O)c1noc(-c2cc(C(C)C)c(O)cc2O)c1-c1ccc(CN2CCOCC2)cc1 [Luminespib] (partner 0.01 µM)
In short: (§1)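 Relative viability is defined as nuclei in treated wells over nuclei in vehicle wells. Duplicate plates were run and medians reported. Lung cancer cell lines in 1536-well plates were dosed by pin tool one day after seeding, with one drug or with a fixed anchor-drug dose plus five library-drug doses (not always all listed) in √10 steps, and nuclei were counted after 5 days.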

[2] = compound: CC1CC(=O)N(C2=CN=C(N=C2N1C3CCCC3)NC4=C(C=C(C=C4)C(=O)NC5CCN(CC5)C)OC)C [NPK76-II-72-1] + CC(C)C[C@H](NC(=O)[C@H](Cc1ccccc1)NC(=O)c1cnccn1)B(O)O [Bortezomib] (partner 0.002 µM)
In short: as §1

[3] = compound: CC[C@@H]1C(=O)N(C)c2cnc(Nc3ccc(C(=O)NC4CCN(C)CC4)cc3OC)nc2N1C1CCCC1 [BI-2536] + Cc1nc(Nc2ncc(C(=O)Nc3c(C)cccc3Cl)s2)cc(N2CCN(CCO)CC2)n1 [Dasatinib] (partner 0.075 µM)
In short: as §1

[4] = compound: CC1CC(=O)N(C2=CN=C(N=C2N1C3CCCC3)NC4=C(C=C(C=C4)C(=O)NC5CCN(CC5)C)OC)C [NPK76-II-72-1] + Nc1ncn([C@H]2C[C@H](O)[C@@H](CO)O2)c(=O)n1 [Decitabine] (partner 2 µM)
In short: as §1

Cell Line | relative viability ([1]; first compound 0.01 µM) | relative viability ([1]; first compound 0.03162 µM) | relative viability ([1]; first compound 0.1 µM) | relative viability ([1]; first compound 0.3162 µM) | relative viability ([1]; first compound 1 µM) | relative viability ([2]; first compound 0.01 µM) | relative viability ([2]; first compound 0.03162 µM) | relative viability ([2]; first compound 0.1 µM) | relative viability ([2]; first compound 0.3162 µM) | relative viability ([2]; first compound 1 µM) | relative viability ([3]; first compound 0.01 µM) | relative viability ([3]; first compound 0.03162 µM) | relative viability ([3]; first compound 0.1 µM) | relative viability ([3]; first compound 0.3162 µM) | relative viability ([3]; first compound 1 µM) | relative viability ([4]; first compound 0.01 µM) | relative viability ([4]; first compound 0.03162 µM) | relative viability ([4]; first compound 0.1 µM) | relative viability ([4]; first compound 0.3162 µM) | relative viability ([4]; first compound 1 µM)
NCI-H2085 | 0.396 | 0.5 | 0.384 | 0.29 | 0.262 | 1.05 | 1.01 | 0.977 | 0.953 | 1.02 | 0.26 | 0.232 | 0.232 | 0.157 | 0.19 | 0.543 | 0.519 | 0.517 | 0.472 | 0.611
NCI-H2087 | 0.161 | 0.182 | 0.139 | 0.136 | 0.157 | 0.941 | 0.861 | 0.63 | 0.737 | 0.82 | 0.913 | 0.926 | 0.509 | 0.105 | 0.0876 | 0.226 | 0.33 | 0.3 | 0.217 | 0.36
NCI-H2126 | 0.855 | 0.512 | 0.392 | 0.278 | 0.32 | 1.01 | 1.16 | 1.11 | 1.07 | 1.16 | 0.659 | 0.58 | 0.294 | 0.26 | 0.224 | 0.57 | 0.554 | 0.569 | 0.516 | 0.538
NCI-H2347 |  | 0.517 | 0.41 | 0.378 | 0.272 | 0.827 | 1.24 | 0.697 | 0.756 | 1.01 |  | 0.293 | 0.285 | 0.278 | 0.167 | 0.607 | 0.578 | 0.614 | 0.562 | 0.635
NCI-H2405 | 0.599 | 0.435 | 0.359 | 0.283 | 0.31 | 1.01 | 0.99 | 0.921 | 0.753 | 1.11 | 0.19 | 0.214 | 0.178 | 0.102 | 0.177 | 0.74 | 0.789 | 0.719 | 0.629 | 0.862
